Drawing on patent US10800765B2, “Indole derivative used as CRTH2 inhibitor” (CHIA TAI TIANQING PHARMACEUTICAL GROUP CO., LTD., priority 2016, dated 2020), this text covers IC50 for 42 molecules.

What is called IC50 is the concentration that gives 50% inhibition.

Chain of CRTH2 receptor (Q9Y5Y4 whole entry): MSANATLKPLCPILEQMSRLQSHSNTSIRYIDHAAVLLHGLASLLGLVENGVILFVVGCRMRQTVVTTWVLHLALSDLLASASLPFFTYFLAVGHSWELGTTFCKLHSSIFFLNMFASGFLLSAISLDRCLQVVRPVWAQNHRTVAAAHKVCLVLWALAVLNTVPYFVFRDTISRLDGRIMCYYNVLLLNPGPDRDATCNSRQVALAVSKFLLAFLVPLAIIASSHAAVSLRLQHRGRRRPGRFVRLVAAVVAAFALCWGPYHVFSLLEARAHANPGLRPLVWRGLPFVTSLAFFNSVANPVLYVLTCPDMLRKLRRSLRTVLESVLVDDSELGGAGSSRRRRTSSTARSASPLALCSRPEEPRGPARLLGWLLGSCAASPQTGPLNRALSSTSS

The test addresses CRTH2 receptor (Homo sapiens (Human), UniProt Q9Y5Y4). The test can be described thus: PathHunter CHO-K1 CRTH2 β-arrestin antagonist assay (PGD2 agonist). It counts as cell-based. Particulars: PathHunter CHO-K1 CRTH2 β-arrestin cells; 30 min compound pre-incubation, then EC80 PGD2 for 90 min; chemiluminescence. The procedure: PathHunter® CHO-K1 CRTH2 β-arrestin cells (DiscoverX, catalogue number 93-0291C2) grew under standard conditions, and were inoculated into a white-wall 384-well microplate at a density of 5,000 cells/well. 20 μL of Cell Plating Reagent 1 was used in each well. Before the test, the cells were incubated overnight at 37° C./5% CO2. A test compound was serially diluted in DMSO with a dilution factor of 3-fold to give 8 concentrations of the test compound. Shortly before the test, the serially diluted test compound was further diluted with the test buffer to 5 times of the test concentration. 5 μL of the further diluted test compound was added to the cells, and the cells were incubated for 30 min at 37° C. The concentration of the solvent was 1%. 5 μL of 6×EC80 agonist (PGD2) buffer was added to the cells, and the cells were incubated for 90 min at 37° C. Measured signals were generated by one-time addition of 15 μL (50% v/v) of PathHunter detection mixture reagent and subsequent one-hour incubation. The microplate was read through the chemiluminescent signals of PerkinElmer Envision™ reader. Biological activity of the test compound was analyzed by CBIS data analysis suite (ChemInnovation, CA), and was denoted as IC50 value.
In turn, `Cc1c(C2CS(=O)(=O)c3ccccc32)c2cc(F)ccc2n1CC(=O)O` (stereo not drawn) [Example 2] showed an IC50 of 100 to 1000 nM. The result for `Cc1c(C2=CS(=O)(=O)c3ccccc32)c2ccc(F)cc2n1CC(=O)O` [Example 3] reads 100 to 1000 nM; that for `Cc1c(C2=CS(=O)(=O)c3ccccc32)c2cc(Cl)ccc2n1CC(=O)O` [Example 5], 100 to 1000 nM. The result for `Cc1c(C2=CCCS(=O)(=O)c3ccccc32)c2cc(F)ccc2n1CC(=O)O` [Example 9] reads 100 to 1000 nM. The result for `Cc1c(C2=CS(=O)(=O)c3ccncc32)c2cc(F)ccc2n1CC(=O)O` [Example 10] reads 100 to 1000 nM; that for `Cc1c(C2=CS(=O)(=O)c3ncccc32)c2cc(F)ccc2n1CC(=O)O` [Example 11], 100 to 1000 nM. `Cc1c(C2=CS(=O)(=O)c3ccc(C(F)(F)F)cc32)c2cc(F)ccc2n1CC(=O)O` [Example 12] displayed an IC50 of 100 to 1000 nM. The result for `Cc1ccc2c(c1)c(C1=CS(=O)(=O)c3ccc(C(F)(F)F)cc31)c(C)n2CC(=O)O` [Example 15] reads 100 to 1000 nM; that for `Cc1c(C2=CS(=O)(=O)c3ccc(C(F)(F)F)cc32)c2ccc(F)cc2n1CC(=O)O` [Example 16], 100 to 1000 nM; that for `Cc1c(C2=CS(=O)(=O)c3cc(C(F)(F)F)ccc32)c2cc(Cl)ccc2n1CC(=O)O` [Example 17], 100 to 1000 nM. The result for `Cc1c(C2=CS(=O)(=O)c3cc(C(F)(F)F)ccc32)c2ccc(Cl)cc2n1CC(=O)O` [Example 18] reads 100 to 1000 nM; that for `Cc1ccc2c(c1)c(C1=CS(=O)(=O)c3cc(C(F)(F)F)ccc31)c(C)n2CC(=O)O` [Example 19], 100 to 1000 nM.

`Cc1c(C2=CS(=O)(=O)c3cc(C(F)(F)F)ccc32)c2ccc(F)cc2n1CC(=O)O` [Example 20] had an IC50 of 100 to 1000 nM.

Regarding `Cc1c(C2=CS(=O)(=O)c3cc(-c4ccncc4)ccc32)c2cc(F)ccc2n1CC(=O)O` [Example 21], the IC50 was 100 to 1000 nM.

Regarding `Cc1c(C2=CS(=O)(=O)c3cc(S(C)(=O)=O)ccc32)c2cc(F)ccc2n1CC(=O)O` [Example 31], the IC50 is below 100 nM. The molecule `Cc1c(C2=CS(=O)(=O)c3ccc(Cl)cc32)c2cc(F)ccc2n1CC(=O)O` [Example 33] showed an IC50 of 100 to 1000 nM.

In turn, `Cc1c(C2=CS(=O)(=O)c3ccc(Cl)cc32)c2cc(Cl)ccc2n1CC(=O)O` [Example 34] yielded an IC50 of 100 to 1000 nM. The result for `Cc1c(C2=CS(=O)(=O)c3ccc(Cl)cc32)c2ccc(C(F)(F)F)cc2n1CC(=O)O` [Example 38] reads 100 to 1000 nM; that for `Cc1c(Cc2ccc3c(c2)CCS3(=O)=O)c2cc(F)ccc2n1CC(=O)O` [Example 43], below 100 nM; that for `Cc1c(Cc2ccc3c(c2)C=CS3(=O)=O)c2cc(F)ccc2n1CC(=O)O` [Example 44], 100 to 1000 nM. The result for `Cc1c(C(C)C2=CS(=O)(=O)c3ccccc32)c2cc(F)ccc2n1CC(=O)O` (stereo not drawn) [Example 45] reads 100 to 1000 nM; that for `Cc1c(Cc2ccc3c(c2)C(F)C(F)(F)S3(=O)=O)c2cc(F)ccc2n1CC(=O)O` (stereo not drawn) [Example 46], 100 to 1000 nM. The molecule `Cc1c(Cc2ccc3c(c2)N(C)S(=O)(=O)C=C3)c2cc(F)ccc2n1CC(=O)O` [Example 48] yielded an IC50 of 100 to 1000 nM. The result for `Cc1c(Cc2cccc3c2CCS3(=O)=O)c2cc(F)ccc2n1CC(=O)O` [Example 49] reads 100 to 1000 nM; that for `Cc1c(Cc2ccc3c(c2)CCS3(=O)=O)c2ccccc2n1CC(=O)O` [Example 50], 100 to 1000 nM; that for `Cc1c(Cc2ccc3c(c2)CCS3(=O)=O)c2cc(Cl)ccc2n1CC(=O)O` [Example 51], 100 to 1000 nM. For `Cc1ccc2c(c1)c(Cc1ccc3c(c1)CCS3(=O)=O)c(C)n2CC(=O)O` [Example 52], the IC50 lay in the range of 100 to 1000 nM. For the molecule `Cc1c(Cc2ccc3c(c2)CCS3(=O)=O)c2ccc(Cl)cc2n1CC(=O)O` [Example 54], the IC50 is above 1000 nM.

For the molecule `Cc1c(Cc2ccc3c(c2)CCS3(=O)=O)c2cc(Br)ccc2n1CC(=O)O` [Example 55], the IC50 lay within 100 to 1000 nM. `Cc1c(Cc2ccc3c(c2)CCS3(=O)=O)c2cc([N+](=O)[O-])ccc2n1CC(=O)O` [Example 57] yielded an IC50 of 100 to 1000 nM. The result for `CC(=O)Nc1ccc2c(c1)c(Cc1ccc3c(c1)CCS3(=O)=O)c(C)n2CC(=O)O` [Example 59] reads above 1000 nM; that for `O=C(O)Cn1cc(Cc2ccc3c(c2)CCS3(=O)=O)c2cc(F)ccc21` [Example 60], 100 to 1000 nM; that for `Cc1c(Cc2cc3c(cc2C(F)(F)F)S(=O)(=O)CC3)c2cc(F)ccc2n1CC(=O)O` [Example 61], 100 to 1000 nM.

In turn, `Cc1c(Cc2cc3c(cc2C(F)(F)F)S(=O)(=O)CCC3(F)F)c2cc(F)ccc2n1CC(=O)O` [Example 63] registered an IC50 of 100 to 1000 nM.

`Cc1c(Cc2cc3c(cc2C(F)(F)F)S(=O)(=O)N(C)CC3(F)F)c2cc(F)ccc2n1CC(=O)O` [Example 64] gave an IC50 of 100 to 1000 nM. Molecule `Cc1c(Cc2ccc3c(n2)C(F)(F)CCS3(=O)=O)c2cc(F)ccc2n1CC(=O)O` [Example 65] displayed an IC50 below 100 nM.

Turning to `Cc1c(Cc2ccc3c(c2)N=CNS3(=O)=O)c2cc(F)ccc2n1CC(=O)O` [Example 66], the IC50 is below 100 nM. The molecule `Cc1c(Cc2ccc3c(c2)N(C)CN(C2CC2)S3(=O)=O)c2cc(F)ccc2n1CC(=O)O` [Example 70] came in with an IC50 below 100 nM. The result for `Cc1c(Cc2ccc3c(c2)S(=O)(=O)CC3)c2cc(F)ccc2n1CC(=O)O` [Example 74] reads 100 to 1000 nM. The result for `Cc1c(Cc2cccc3c2S(=O)(=O)CC3)c2cc(F)ccc2n1CC(=O)O` [Example 75] reads 100 to 1000 nM.

Regarding `Cc1c(Cc2cc3c(cc2F)S(=O)(=O)N(C)CC3(F)F)c2cc(F)ccc2n1CC(=O)O` [Example 78], the IC50 was 100 to 1000 nM. The result for `Cc1c(Cc2ccc3c(c2)C(F)(F)CCS3(=O)=O)c2ncccc2n1CC(=O)O` [Example 80] reads 100 to 1000 nM.
